One assay deals with T1, ACE (Rattus norvegicus, UniProt P47820).
T1 construct: membrane fraction prepared from rat lung; from tissue; host or cells: rat lung, membrane fraction (method of Wu-Wong et al.)
T1 sequence (P47820 36-1313): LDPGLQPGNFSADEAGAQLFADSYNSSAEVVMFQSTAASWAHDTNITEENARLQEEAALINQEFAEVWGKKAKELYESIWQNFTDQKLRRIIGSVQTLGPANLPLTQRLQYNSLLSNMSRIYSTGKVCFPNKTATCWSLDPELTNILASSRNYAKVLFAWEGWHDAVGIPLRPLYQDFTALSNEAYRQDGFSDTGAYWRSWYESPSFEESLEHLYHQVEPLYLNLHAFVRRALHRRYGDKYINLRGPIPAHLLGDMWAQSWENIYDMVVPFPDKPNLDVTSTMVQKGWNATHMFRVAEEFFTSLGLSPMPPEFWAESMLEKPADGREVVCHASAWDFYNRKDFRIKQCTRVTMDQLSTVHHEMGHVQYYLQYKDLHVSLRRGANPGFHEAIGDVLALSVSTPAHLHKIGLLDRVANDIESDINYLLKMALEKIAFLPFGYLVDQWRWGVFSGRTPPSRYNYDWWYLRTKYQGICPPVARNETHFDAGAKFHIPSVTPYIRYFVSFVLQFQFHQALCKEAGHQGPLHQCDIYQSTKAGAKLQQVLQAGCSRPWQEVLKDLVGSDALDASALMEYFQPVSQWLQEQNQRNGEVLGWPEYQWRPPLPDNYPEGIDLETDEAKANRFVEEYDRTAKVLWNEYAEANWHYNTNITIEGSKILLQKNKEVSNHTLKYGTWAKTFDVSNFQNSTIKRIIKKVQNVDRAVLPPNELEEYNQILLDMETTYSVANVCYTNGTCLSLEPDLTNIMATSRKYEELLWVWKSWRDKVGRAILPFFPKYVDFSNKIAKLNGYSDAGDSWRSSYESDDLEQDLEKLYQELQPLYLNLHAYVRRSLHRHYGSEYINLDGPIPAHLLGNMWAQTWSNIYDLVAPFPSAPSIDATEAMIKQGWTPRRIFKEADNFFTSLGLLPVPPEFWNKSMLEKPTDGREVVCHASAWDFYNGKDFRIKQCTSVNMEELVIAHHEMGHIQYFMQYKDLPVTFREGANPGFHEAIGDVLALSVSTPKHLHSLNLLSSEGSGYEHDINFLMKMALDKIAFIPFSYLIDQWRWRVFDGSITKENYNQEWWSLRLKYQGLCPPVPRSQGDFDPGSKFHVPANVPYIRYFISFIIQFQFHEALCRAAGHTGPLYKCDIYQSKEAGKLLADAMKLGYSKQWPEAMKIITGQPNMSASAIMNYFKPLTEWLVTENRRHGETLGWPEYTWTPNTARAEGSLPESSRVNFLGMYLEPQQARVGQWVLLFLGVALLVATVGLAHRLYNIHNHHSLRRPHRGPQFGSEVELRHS
Nature of the assay: ACE inhibition activity (Experiment D-1). To be noted: rat lung membrane fraction, pH 8.3. It is filed as biochemical. Here is the method:
As a source of the enzyme ACE, a membrane fraction prepared from rat lung in accordance with the method of Wu-Wong et al. (Characterization of Endthelin Converting Enzyme in Rat Lung., Junshyum R. Wu-Wong, Gerald, P. Budzik, Edward M. Devine and Terry J. Opgenorth, Biochem. Biophys. Res. Commun., 1990, 171, 1291-1296.) was used. The ACE activity was determined with the use of a modification (modified to a borate buffer, pH 8.3) of the method of Cushman and Cheung (Spectrophotometric Assay and Properties of the Angiotensin-Converting Enzyme of Rabbit Lung., Cushman D. W. and Cheung H. S., 1971, 20, 1637-1648.). Now the procedure will be briefly described.
In the presence of ACE, the hippurate liberated from hippuryl-histidine-leucine (Hippuryl-His-Leu (Peptide Institute Inc., Japan)) was extracted with ethyl acetate and then the absorbance was measured at a wavelength of 228 nm.
(§1) To determine the NEP inhibition activity and the ACE inhibition activity, the inhibitor was added to the assay systems of both enzyme activities as described above in such a manner as to give the final concentrations of 1, 3, 10, 30, 100, 300 and 1000 nM and inhibition curves were prepared. Then the concentration at which 50% inhibition was achieved was taken as IC50.

A further assay addresses T2, NEP (Rattus norvegicus, UniProt P07861).
T2 sequence (P07861 1-750): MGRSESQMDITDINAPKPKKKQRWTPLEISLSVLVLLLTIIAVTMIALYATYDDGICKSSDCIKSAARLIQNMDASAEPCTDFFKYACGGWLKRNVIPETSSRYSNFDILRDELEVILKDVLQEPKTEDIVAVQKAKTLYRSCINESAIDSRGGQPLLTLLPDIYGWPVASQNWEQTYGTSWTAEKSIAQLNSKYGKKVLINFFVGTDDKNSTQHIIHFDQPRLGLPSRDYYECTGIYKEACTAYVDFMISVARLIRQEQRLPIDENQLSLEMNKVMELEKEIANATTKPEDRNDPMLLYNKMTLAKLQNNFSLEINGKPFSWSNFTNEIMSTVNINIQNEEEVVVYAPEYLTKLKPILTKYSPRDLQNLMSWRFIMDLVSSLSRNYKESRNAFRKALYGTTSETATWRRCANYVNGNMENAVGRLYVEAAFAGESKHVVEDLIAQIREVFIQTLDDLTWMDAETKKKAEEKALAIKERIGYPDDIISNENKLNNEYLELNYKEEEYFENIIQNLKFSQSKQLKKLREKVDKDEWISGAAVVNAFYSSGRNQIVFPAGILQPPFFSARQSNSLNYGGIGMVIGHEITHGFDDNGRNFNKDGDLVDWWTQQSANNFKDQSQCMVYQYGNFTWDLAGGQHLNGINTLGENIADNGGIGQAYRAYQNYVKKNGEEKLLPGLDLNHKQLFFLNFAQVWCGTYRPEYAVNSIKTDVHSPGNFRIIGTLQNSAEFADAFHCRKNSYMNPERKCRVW
Nature of the assay: NEP inhibition activity (Experiment D-1). To be noted: rat renal cortex membrane fraction. It is filed as biochemical. Also noted: membrane fraction prepared from rat renal cortex; from tissue; host or cells: rat renal cortex, membrane fraction (method of Booth and Kenny). On the procedure: As a source of the enzyme NEP, a membrane fraction prepared from rat renal cortex in accordance with the method of Booth and Kenny (A Rapid Method for the Purification of Microvilli from Rabbit Kidney., Andrew G. Booth and A. John Kenny, Biochem. j., 1974, 142, 575-581.) was employed. The NEP activity was determined in accordance with the method of Orlowsky and Wilk (Purification and Specificity of a Membrane-Bound Metalloendpeptidase from Bovine Pituitaries., Marian Orlowsky and Shrwin Wilk, Biochemistry, 1981, 20, 4942-4950.). Now the procedure will be briefly described.
As a substrate, benzoyl-glycine-arginine-arginine-2-naphthylamide benzoyl-Gly-Arg-Arg-2-naphthylamide (Nova Biochem, Switzerland)) was used. In the presence of an NEP enzyme preparation and excessive leucine aminopeptidase (sigma chemical Co., U.S.A.), the liberated naphthylamine was made to undergo color development with first garnet (Sigma chemical Co., U.S.A.), followed by the measurement of the absorbance at a wavelength of 540 nm.
as §1

Assay [1] concerns SHR. Nature of the assay: Hypotensive effect on SHR, i.v. (Experiment D-2). It is filed as in vivo, Spontaneously hypertensive rats. Here is the method:
Spontaneously hypertensive rats (SHR) aged 15 to 20 weeks were anesthetized by intraperitoneally administering thiopental sodium (50 mg/kg). The depth of anesthesia was maintained by optionally effecting supplemental anesthesia (5 mg/kg, i.v.). Catheters were inserted into the left common carotid artery and the vein respectively for the measurement of blood pressure and for the administration of a medicament. The cardiac rate was counted by using blood pressure as a trigger.
When the blood pressure became stable after the completion of the operation, the comparative compound or the compound of Example 9 was intravenously administered in doses of 0.1, 0.3 and 1.0 mg/kg and changes in blood pressure and cardiac rate were measured. Following the administration, the measurement was effected for 10 minutes in the cases of 0.1 and 0.3 mg/kg or for 30 minutes in the case of 1.0 mg/kg.

Assay [2] concerns SHR. Nature of the assay: Hypotensive effect on SHR, i.v. (Experiment C-5). It is filed as in vivo, rat (SHR). On the procedure:
SHRs aged 15 to 20 weeks were anesthetized by intraperitoneally administering thiopental sodium (50 mg/kg). The depth of anesthesia was maintained by optionally effecting supplemental anesthesia (5 mg/kg, i.v.). Catheters were inserted into the left common carotid artery and the vein respectively for the measurement of blood pressure and for the administration of a medicament. The cardiac rate was counted by using blood pressure as a trigger.
When the blood pressure became stable after the completion of the operation, the comparative compound was intravenously administered in 0.1, 0.3 and 1.0 mg/kg and changes in blood pressure and cardiac rate were measured. Following the administration, the measurement was effected for 10 minutes in the cases of 0.1 and 0.3 mg/kg or for 30 minutes in the case of 1.0 mg/kg. The invention compound was intravenously administered in 0.03, 0.1 and 0.3 mg/kg and the measurement was effected for 10 minutes after the administration in the cases of 0.03 and 0.1 mg/kg or for 30 minutes after the administration in the case of 0.3 mg/kg.

Assay [3] has as its system SHR. Nature of the assay: Hypotensive effect on SHR through intravenous administration (separate experiment). The format is in vivo. The conditions noted are these: Rattus norvegicus, read-out: dose to decrease the blood pressure by 10%. The source says: In addition to the above-mentioned Pharmacological Experiment Examples, an experiment was separately effected with the use of SHR for examining hypotensive effects through intravenous administration. As the result, in the comparison of the conventionally known double inhibitors (1) [S-(R*,R*)]-2,3,4,5-tetrahydro-3-[(2-mercapto-[…])amino]-2-oxo-1H-benzazepine-1-acetic acid and (2) [S-(R*,R*)]-2,3,4,5-tetrahydro-3-[(2-mercapto-1-oxo-4-methylpentyl)amino]- 2-oxo-1H-benzazepine-1-acetic acid with the compounds of the present invention, Example C-8 and Example C-10, the inhibitors (1) and (2) should be administered each in a dose of 1.0 mg/kg to decrease the blood pressure by 10%, whereas the administration of 0.03 to 0.1 mg/kg of the compound of Example C-8 and the administration of 0.1 to 0.3 mg/kg of the compound of Example C-10 each achieved the same effect.

Setting [4] is: within 30 minutes after i.v. administration.

The term IC50 denotes the concentration at which inhibition is half-maximal. Consider `COc1ccc(CC(S)C(=O)N[C@H]2Cc3ccccc3[C@H]3SC[C@H](C(=O)O)N3C2=O)cc1` (stereo partly drawn) [Comp. cpd.*^1], for which the IC50 against ACE came to 11 nM; against NEP, 14 nM.
For `CS(=O)(=O)Nc1ccc2c(c1)[C@H]1CCC[C@@H](C(=O)O)N1C(=O)[C@@H](NC(=O)[C@@H](S)Cc1ccccc1)C2` [Example D-5, [4S-[4α,7α(R*),12bβ]]-11-methylsulfonylamino7-[[(S)-2-mercapto-3-phenyl-1-oxopropyl)amino-6-oxo-1,2,3,4,6,7,8,12b-octahydropyrido-[2,1-a][2]benzazepine-4-carboxylic acid], in that order: 17 nM and 33 nM.
For the compound `COc1ccc(C[C@H](S)C(=O)N[C@H]2Cc3ccc(NS(C)(=O)=O)cc3[C@H]3CCC[C@@H](C(=O)O)N3C2=O)cc1` [Example D-6, [4S-[4α,7α(R*),12bβ]]-11-methylsulfonylamino-7-[[(S)-2-mercapto-3-(4-methoxyphenyl)-1-oxopropyl]amino-6-oxo-1,2,3,4,6,7,8,12b-octahydropyrido-[2,1-a][2]benzazepine-4-carboxylic acid], at ACE, the IC50 stood at 12 nM. In addition, in the assay with SHR [1] (1.0 mg/kg i.v.), the “decrease in blood pressure / hypotensive effect” value is 25%. Moreover, in the assay with SHR [1] (SHR, i.v.), the cardiac rate entry is recorded as “tended to gradually decrease” and the “hypotensive effect on SHR relative to the comparative compound” value is reported as “about three times that of the comparative compound”. The same compound displayed an IC50 on NEP of 38 nM.
`O=C(N[C@H]1Cc2ccccc2[C@H]2CCC[C@@H](C(=O)O)N2C1=O)[C@@H](S)Cc1ccccc1` [comparative compound, reference compound]: the cardiac rate result in the assay on SHR [2] (SHR, i.v.) was “tended to gradually decrease”; in the assay on SHR [1] (SHR, i.v.), “tended to gradually decrease”. In addition, the “return of blood pressure” value in the assay with SHR [2] (setting [4]) and in the assay with SHR [1] (setting [4]) was “did not return within 30 minutes” in each case.
For `O=C(O)CN1C(=O)[C@@H](NC(=O)[C@@H](S)Cc2ccccc2)CCc2ccccc21` [inhibitor (1)], the ED (10% decrease in blood pressure) with SHR [3] was determined as 1 mg/kg.
As to `CC(C)C[C@H](S)C(=O)N[C@H]1CCc2ccccc2N(CC(=O)O)C1=O` [inhibitor (2), [S-(R*,R*)]-2,3,4,5-tetrahydro-3-[(2-mercapto-1-oxo-4-methylpentyl)amino]-2-oxo-1H-benzazepine-1-acetic acid], the ED (10% decrease in blood pressure) in the assay with SHR [3] stood at 1 mg/kg.
